Literature values in patent publication US20110195988A1, “Pharmaceutical Composition” (Special Products Limited, priority 2010, published 2011).

Details: oral formulations of morphine

CN1CC[C@]23c4c5ccc(O)c4O[C@H]2[C@@H](O)C=C[C@H]3[C@H]1C5 [morphine]
time after administration at which the analgesic effect is observed: around 30 minutes
